Key:
P12-Ichikawa [1] = test: AUC of viability dose-response curve (% viability x log10 dose units); higher = less sensitive; settings: 48 h
Method in brief: (§1)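 Leukemia cells adapted to each medium were seeded in 1536-well plates (500 or 1000 cells/well) and given library compounds in DMSO for 48 h at 37°C. The 11 threefold doses spanned 47 μM to 0.79 nM, and CellTiter-Glo One luminescence was normalised per plate to DMSO and cell-free wells before four-parameter log-logistic fitting on log10 dose. Area under the curve was integrated with the trapezoidal rule, scaling curves above full viability and removing curves that failed quality control.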

SEM cells [2] = test: as above; settings: 48 h
Method in brief: as §1

NOMO1 = test: as above; settings: 48 h
Method in brief: as §1

SEM cells [3] = test: cell viability relative to DMSO control; higher = less cytotoxic; settings: 48 h
Method in brief: (§2)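 Before seeding, each leukemia line was adapted for at least four passages in each medium. NOMO1 or SEM cells (500 cells/well) and P12-Ichikawa cells (1000 cells/well) went into 1536-well plates at 5 μl, then received library compounds in DMSO by pin dosing across 11 threefold concentrations, 47 μM to 0.79 nM. Readout was CellTiter-Glo One luminescence after 48 h at 37°C, and viability is given as a per-plate percentage of DMSO wells, with cell-free wells as background.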

P12-Ichikawa [4] = test: as above; settings: RPMI 5 mM glucose + 10% dialyzed FBS, 48 h
Method in brief: as §2

[5] = RPMI 5 mM glucose + 10% dialyzed FBS
[6] = RPMI 5 mM glucose + 10% dialyzed FBS, 0.000781 µM
[7] = RPMI 5 mM glucose + 10% dialyzed FBS, 0.00234 µM
[8] = RPMI 5 mM glucose + 10% dialyzed FBS, 0.00702 µM
[9] = RPMI 5 mM glucose + 10% dialyzed FBS, 0.0211 µM
[10] = RPMI 5 mM glucose + 10% dialyzed FBS, 0.0632 µM
[11] = RPMI 5 mM glucose + 10% dialyzed FBS, 0.19 µM
[12] = RPMI 5 mM glucose + 10% dialyzed FBS, 0.569 µM
[13] = RPMI 5 mM glucose + 10% dialyzed FBS, 1.71 µM
[14] = RPMI 5 mM glucose + 10% dialyzed FBS, 5.12 µM
[15] = RPMI 5 mM glucose + 10% dialyzed FBS, 15.4 µM
[16] = RPMI 5 mM glucose + 10% dialyzed FBS, 46.1 µM
[17] = HPLM + 10% dialyzed FBS, 0.000781 µM
[18] = HPLM + 10% dialyzed FBS, 0.00234 µM
[19] = HPLM + 10% dialyzed FBS, 0.00702 µM
[20] = HPLM + 10% dialyzed FBS, 0.0211 µM
[21] = HPLM + 10% dialyzed FBS, 0.0632 µM
[22] = HPLM + 10% dialyzed FBS, 0.19 µM
[23] = HPLM + 10% dialyzed FBS, 0.569 µM
[24] = HPLM + 10% dialyzed FBS, 1.71 µM
[25] = HPLM + 10% dialyzed FBS, 5.12 µM
[26] = HPLM + 10% dialyzed FBS, 15.4 µM
[27] = HPLM + 10% dialyzed FBS, 46.1 µM

| Compound | AUC of viability dose-response curve (P12-Ichikawa [1]; HPLM + 10% dialyzed FBS) | AUC of viability dose-response curve (P12-Ichikawa [1]; RPMI 5 mM glucose + 10% FBS) | AUC of viability dose-response curve (P12-Ichikawa [1]; [5]) | AUC of viability dose-response curve (SEM cells [2]; HPLM + 10% dialyzed FBS) | AUC of viability dose-response curve (SEM cells [2]; RPMI 5 mM glucose + 10% FBS) | AUC of viability dose-response curve (SEM cells [2]; [5]) | AUC of viability dose-response curve (NOMO1; HPLM + 10% dialyzed FBS) | AUC of viability dose-response curve (NOMO1; RPMI 5 mM glucose + 10% FBS) | AUC of viability dose-response curve (NOMO1; [5]) | cell viability (SEM cells [3]; [17]) [%] | cell viability (SEM cells [3]; [18]) [%] | cell viability (SEM cells [3]; [19]) [%] | cell viability (SEM cells [3]; [20]) [%] | cell viability (SEM cells [3]; [21]) [%] | cell viability (SEM cells [3]; [22]) [%] | cell viability (SEM cells [3]; [23]) [%] | cell viability (SEM cells [3]; [24]) [%] | cell viability (SEM cells [3]; [25]) [%] | cell viability (SEM cells [3]; [26]) [%] | cell viability (SEM cells [3]; [27]) [%] | other results |
| --- | --- | --- | --- | --- | --- | --- | --- | --- | --- | --- | --- | --- | --- | --- | --- | --- | --- | --- | --- | --- | --- |
| CCCNC(=O)[C@H]1O[C@@H]1C(=O)N[C@H](C(=O)N1CCC[C@H]1C(=O)OC)C(C)CC (some centres not stated) | 446 | 416 | 424 | 439 | 420 | 433 | 444 | 421 | 449 |  |  |  |  |  |  |  |  |  |  |  |  |
| C/C=C/C[C@@H](C)C(=O)[C@H]1C(=O)N[C@@H](C(C)C)C(=O)N(C)CC(=O)N(C)[C@@H](CC(C)C)C(=O)N[C@@H](C(C)C)C(=O)N(C)[C@@H](CC(C)C)C(=O)N[C@@H](C)C(=O)N[C@H](C)C(=O)N(C)[C@@H](CC(C)C)C(=O)N(C)[C@@H](CC(C)C)C(=O)N(C)[C@@H](C(C)C)C(=O)N1C | 424 | 413 | 411 | 427 | 406 | 424 | 441 | 466 | 461 |  |  |  |  |  |  |  |  |  |  |  | cell viability (SEM cells [3]; [6]): 125%; cell viability (SEM cells [3]; [7]): 125%; cell viability (SEM cells [3]; [8]): 108%; cell viability (SEM cells [3]; [9]): 151%; cell viability (SEM cells [3]; [10]): 131%; cell viability (SEM cells [3]; [11]): 120%; cell viability (SEM cells [3]; [12]): 123%; cell viability (SEM cells [3]; [13]): 108%; cell viability (SEM cells [3]; [14]): 108%; cell viability (SEM cells [3]; [15]): 71.6%; cell viability (SEM cells [3]; [16]): 23.7% |
| NC1(c2ccc(-c3nc4ccn5c(=O)[nH]nc5c4cc3-c3ccccc3)cc2)CCC1 | 396 | 366 | 361 | 322 | 318 | 298 | 392 | 451 | 423 | 123 | 138 | 125 | 74.7 | 125 | 104 | 78.3 | 65.1 | 43.8 | 37.9 | 14.4 |  |
| Cn1cc(/C=C/C(=O)c2cccc(F)c2)cc1/C=C/C(=O)NO | 466 | 475 | 462 | 474 | 476 | 469 | 468 | 470 | 468 | 123 | 133 | 120 | 129 | 136 | 120 | 137 | 128 | 137 | 132 | 118 |  |
| CC(=O)O[C@H]1C[C@@H]2CC[C@@H]3[C@H](CC[C@@]4(C)[C@H]3C[C@H]([N+]3(C)CCCCC3)[C@@H]4OC(C)=O)[C@@]2(C)C[C@@H]1[N+]1(C)CCCCC1 | 464 | 457 | 465 | 477 | 438 | 465 | 459 | 466 | 472 | 110 | 110 | 119 | 126 | 108 | 108 | 115 | 121 | 109 | 110 | 117 | cell viability (P12-Ichikawa [4]; 0.000781 µM): 123%; cell viability (P12-Ichikawa [4]; 0.00234 µM): 134%; cell viability (P12-Ichikawa [4]; 0.00702 µM): 121%; cell viability (P12-Ichikawa [4]; 0.0211 µM): 124%; cell viability (P12-Ichikawa [4]; 0.0632 µM): 132%; cell viability (P12-Ichikawa [4]; 0.19 µM): 125%; cell viability (P12-Ichikawa [4]; 0.569 µM): 127%; cell viability (P12-Ichikawa [4]; 1.71 µM): 117%; cell viability (P12-Ichikawa [4]; 5.12 µM): 125%; cell viability (P12-Ichikawa [4]; 15.4 µM): 117%; cell viability (P12-Ichikawa [4]; 46.1 µM): 113% |
| Cn1cc(CNCC2CCN(c3ncc(C(=O)NO)cn3)CC2)c2ccccc21 | 262 | 255 | 273 | 231 | 238 | 239 | 268 | 276 | 271 |  |  |  |  |  |  |  |  |  |  |  |  |
| COC(=O)Nc1ccc(-c2nc(N3CCOCC3)c3cnn(C4CCN(C(=O)OC)CC4)c3n2)cc1 | 343 | 339 | 331 | 337 | 375 | 382 | 337 | 392 | 336 |  |  |  |  |  |  |  |  |  |  |  |  |
| O=c1c(-c2ccc(O)cc2)coc2cc(O[C@@H]3O[C@H](CO)[C@@H](O)[C@H](O)[C@H]3O)ccc12 | 473 | 469 | 470 | 459 | 450 | 449 | 456 | 468 | 467 | 114 | 115 | 115 | 122 | 114 | 120 | 123 | 110 | 121 | 91.1 | 79.1 | cell viability (SEM cells [3]; [6]): 124%; cell viability (SEM cells [3]; [7]): 124%; cell viability (SEM cells [3]; [8]): 128%; cell viability (SEM cells [3]; [9]): 119%; cell viability (SEM cells [3]; [10]): 135%; cell viability (SEM cells [3]; [11]): 137%; cell viability (SEM cells [3]; [12]): 126%; cell viability (SEM cells [3]; [13]): 111%; cell viability (SEM cells [3]; [14]): 118%; cell viability (SEM cells [3]; [15]): 100%; cell viability (SEM cells [3]; [16]): 70.1% |
| OC[C@H]1O[C@H](C[C@@H]1O)[N]2C=NC3=C2\N=C/NC[C@H]3O | 457 | 457 | 475 | 450 | 466 | 469 | 444 | 465 | 434 |  |  |  |  |  |  |  |  |  |  |  |  |
| NC1(C(=O)N[C@@H](CCO)c2ccc(Cl)cc2)CCN(c2ncnc3[nH]ccc23)CC1 | 391 | 362 | 378 | 375 | 378 | 356 | 409 | 413 | 423 |  |  |  |  |  |  |  |  |  |  |  |  |

Reference: the supplement of paper PMC11451515
